Data on 21 compounds can be found in patent US11826351B2, “Compounds useful as kinase inhibitors” (Loxo Oncology, Inc., priority 2015, dated 2023).

The target in experiment [1] is T1, Recombinant BTK^WT kinase (Homo sapiens, UniProt Q06187).
T1 construct: purchased Invitrogen
As to the kind of experiment: BTK WT binding affinity (LanthaScreen TR-FRET). Conditions: Kinase Tracer 236, 5 h incubation. In outline:
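IC50 obtained by variable-slope fit of TR-FRET signal (ex 340 nm; em 615 and 665 nm) versus inhibitor concentration. Reaction held for 5 h in LanthaScreen Kinase Buffer A with 2.5 nM His-tagged BTK^WT, 15 nM Kinase Tracer 236 and 2 nM Eu anti-His antibody.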
On the technique in general: TR-FRET usually uses a lanthanide donor and a delayed reading to cut background.

Experiment [2] has as its target T2, Recombinant BTK^C481S kinase (Homo sapiens, UniProt Q06187, C481S).
T2 construct: purchased SignalChem
As to the kind of experiment: BTK C481S binding affinity (LanthaScreen TR-FRET). The settings on record: Kinase Tracer 236, 5 h incubation. In a few lines:
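BTK C481S tracer-displacement TR-FRET: 5 nM His-tagged kinase, 2 nM Eu anti-His antibody and 30 nM Kinase Tracer 236 incubated with titrated inhibitor for 5 h in Kinase Buffer A. Read at 340 nm excitation, 615/665 nm emission; IC50 from variable-slope log[inhibitor]–response fit.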

Another experiment deals with T3, Recombinant EGFR (Homo sapiens, UniProt P00533).
T3 construct: purchased Invitrogen
T3 sequence (P00533 25-1210): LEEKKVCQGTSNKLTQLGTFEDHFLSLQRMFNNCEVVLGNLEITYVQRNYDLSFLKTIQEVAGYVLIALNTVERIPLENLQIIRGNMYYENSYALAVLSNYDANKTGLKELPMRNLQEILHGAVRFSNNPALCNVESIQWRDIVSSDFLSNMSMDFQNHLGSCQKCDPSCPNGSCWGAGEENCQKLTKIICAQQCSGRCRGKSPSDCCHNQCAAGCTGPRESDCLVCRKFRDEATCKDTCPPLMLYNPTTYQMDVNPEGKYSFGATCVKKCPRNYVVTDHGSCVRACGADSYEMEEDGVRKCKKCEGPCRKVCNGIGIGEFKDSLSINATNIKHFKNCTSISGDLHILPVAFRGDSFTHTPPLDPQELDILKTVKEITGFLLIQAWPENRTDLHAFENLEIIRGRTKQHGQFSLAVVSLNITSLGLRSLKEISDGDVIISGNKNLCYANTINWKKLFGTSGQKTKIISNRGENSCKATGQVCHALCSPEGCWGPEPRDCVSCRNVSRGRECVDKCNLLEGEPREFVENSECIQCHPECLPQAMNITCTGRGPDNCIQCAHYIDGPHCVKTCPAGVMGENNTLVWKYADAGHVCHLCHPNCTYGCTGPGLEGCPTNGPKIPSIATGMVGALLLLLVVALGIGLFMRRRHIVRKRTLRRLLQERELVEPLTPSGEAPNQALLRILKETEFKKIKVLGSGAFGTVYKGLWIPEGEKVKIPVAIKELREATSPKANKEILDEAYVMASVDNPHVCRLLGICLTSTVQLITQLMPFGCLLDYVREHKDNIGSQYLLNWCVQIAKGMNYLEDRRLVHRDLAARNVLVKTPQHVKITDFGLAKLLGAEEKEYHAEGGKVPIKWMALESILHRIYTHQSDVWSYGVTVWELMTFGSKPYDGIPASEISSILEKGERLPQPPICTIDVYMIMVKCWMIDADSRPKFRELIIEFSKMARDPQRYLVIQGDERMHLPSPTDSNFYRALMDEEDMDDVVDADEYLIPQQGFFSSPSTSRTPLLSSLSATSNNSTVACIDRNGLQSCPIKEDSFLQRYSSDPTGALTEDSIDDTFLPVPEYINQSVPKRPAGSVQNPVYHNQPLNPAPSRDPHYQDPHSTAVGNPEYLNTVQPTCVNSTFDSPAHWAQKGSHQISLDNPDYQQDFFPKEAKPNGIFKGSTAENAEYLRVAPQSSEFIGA
As to the kind of experiment: EGFR binding affinity (LanthaScreen TR-FRET). Conditions: Kinase Tracer 199, 5 h incubation. In a few lines:
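Compounds were titrated against recombinant EGFR and binding was followed by LanthaScreen time-resolved FRET.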

The test system of experiment [3] is OCI-Ly10 human DLBCL cells. The experiment can be described thus: OCI-Ly10 anti-proliferative activity (Resazurin). The format is cell-based. The settings on record: Homo sapiens, OCI-Ly10, 72 h, OCI-Ly10 cells, 72 h compound treatment, Resazurin; read-out: Proliferation Assay OCI-Ly10-20% FBS. In a few lines: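 A separate untreated plate gave the Day 0 reading, measured by Resazurin fluorescence at 590 nm after 5 h. The average Day 0 value was subtracted from each treated well, and results were expressed as percent of DMSO control. IC50 values came from a log[Inhibitor] vs response Variable Slope fit in Graphpad prism.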
On the technique in general: The colour change of resazurin is a common sign of viable cells or microbes.

A value given as a limit tells only on which side of the number the result lay.

T2 sequence (Q06187 whole entry C481S): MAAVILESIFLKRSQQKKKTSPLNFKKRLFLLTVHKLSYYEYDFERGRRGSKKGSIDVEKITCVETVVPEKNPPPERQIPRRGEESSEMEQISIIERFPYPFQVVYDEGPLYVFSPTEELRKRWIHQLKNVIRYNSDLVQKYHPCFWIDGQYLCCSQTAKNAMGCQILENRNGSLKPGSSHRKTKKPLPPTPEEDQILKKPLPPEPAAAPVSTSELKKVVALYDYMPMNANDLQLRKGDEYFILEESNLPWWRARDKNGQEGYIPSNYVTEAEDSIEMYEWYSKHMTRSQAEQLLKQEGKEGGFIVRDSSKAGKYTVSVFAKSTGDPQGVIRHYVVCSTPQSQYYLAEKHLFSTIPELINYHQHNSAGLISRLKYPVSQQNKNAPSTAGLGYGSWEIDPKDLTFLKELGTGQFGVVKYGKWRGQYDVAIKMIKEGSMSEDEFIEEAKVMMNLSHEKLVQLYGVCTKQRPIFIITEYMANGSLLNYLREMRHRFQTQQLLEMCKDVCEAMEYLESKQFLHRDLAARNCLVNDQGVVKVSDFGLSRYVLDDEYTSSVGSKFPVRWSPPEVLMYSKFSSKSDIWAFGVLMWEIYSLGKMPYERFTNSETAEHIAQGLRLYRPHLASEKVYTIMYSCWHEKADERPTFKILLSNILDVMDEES
T1 sequence (Q06187 whole entry): as the sequence (Q06187 whole entry C481S) above, with S481C counted along it

Regarding `COc1ccc(F)cc1C(=O)NCc1ccc(-c2nn(C3CCCOC3)c(N)c2C(N)=O)c(F)c1F` (stereo not drawn) [Example 159, 5-amino-3-[2,3-difluoro-4-[[(5-fluoro-2-methoxy-benzoyl)amino]methyl]phenyl]-1-tetrahydropyran-3-yl-pyrazole-4-carboxamide], the IC50 was less than 0.01 µM in experiment [1], less than 0.01 µM in experiment [2], greater than 10 µM on Recombinant EGFR and 0.01 to 0.1 µM in experiment [3].

`COc1ccccc1C(=O)NCc1ccc(-c2nn(C3CCC(=O)C3)c(N)c2C(N)=O)cc1` (stereo not drawn) [Example 13, 5-Amino-3-[4-[[(2-methoxybenzoyl)amino]methyl]phenyl]-1-(3-oxocyclopentyl)pyrazole-4-carboxamide]: the IC50 was less than 0.01 µM in experiment [1], less than 0.01 µM in experiment [2], 1 to 10 µM at Recombinant EGFR and 0.1 to 1 µM in experiment [3].

On to `CCC(n1nc(-c2ccc(CNC(=O)c3ccccc3OC)cc2)c(C(N)=O)c1N)C(F)(F)F` (stereo not drawn) [Example 170, 5-amino-3-[4-[[(2-methoxybenzoyl)amino]methyl]phenyl]-1-[1-(trifluoromethyl)propyl]pyrazole-4-carboxamide], for which the IC50 in experiment [1] was 0.01 to 0.1 µM; in experiment [2] it was less than 0.01 µM; at Recombinant EGFR, 1 to 10 µM; in experiment [3], 0.1 to 1 µM.

Take `COc1ccc(F)cc1C(=O)NCc1ccc(-c2nn(C3CCCC3)c(N)c2C(N)=O)cc1F` [Example 76, 5-amino-1-cyclopentyl-3-[3-fluoro-4-[[(5-fluoro-2-methoxy-benzoyl)amino]methyl]phenyl]pyrazole-4-carboxamide]: the IC50 in experiment [1] was less than 0.01 µM; in experiment [2], less than 0.01 µM; on Recombinant EGFR it was 0.1 to 1 µM; in experiment [3], 0.01 to 0.1 µM.

`COc1ccccc1C(=O)NCc1ccc(-c2nn(-c3cccc(C(F)(F)F)c3)c(N)c2C(N)=O)cc1` [Example 16, 5-Amino-3-[4-[[(2-methoxybenzoyl)amino]methyl]phenyl]-1-[3-(trifluoromethyl)phenyl]pyrazole-4-carboxamide]: the IC50 in experiment [1] is 0.01 to 0.1 µM; in experiment [2] it was less than 0.01 µM; at Recombinant EGFR, 1 to 10 µM; in experiment [3], 0.1 to 1 µM.

As to `COc1ccccc1C(=O)NCc1ccc(-c2nn([C@H]3CCOC3)c(C(F)F)c2C(N)=O)cc1` [Example 112, 5-(difluoromethyl)-3-[4-[[(2-methoxybenzoyl)amino]methyl]phenyl]-1-[(3S)-tetrahydrofuran-3-yl]pyrazole-4-carboxamide], the IC50 was 0.1 to 1 µM in experiment [1], 0.1 to 1 µM in experiment [2], greater than 10 µM on Recombinant EGFR and greater than 10 µM in experiment [3].

Turning to `COc1ccccc1C(=O)NCc1ccc(-c2nn(-c3ccccc3)c(N)c2C(N)=O)cc1` [Example 22, 5-Amino-3-[4-[[(2-methoxybenzoyl)amino]methyl]phenyl]-1-phenyl-pyrazole-4-carboxamide], the IC50 in experiment [1] is less than 0.01 µM; in experiment [2], less than 0.01 µM; on Recombinant EGFR, 1 to 10 µM; in experiment [3] it was 0.01 to 0.1 µM.

Take `COc1ccccc1C(=O)NCc1ccc(-c2nn(-c3ccccn3)c(N)c2C(N)=O)cc1` [Example 53, 5-amino-3-[4-[[(2-methoxybenzoyl)amino]methyl]phenyl]-1-(2-pyridyl)pyrazole-4-carboxamide]: the IC50 was less than 0.01 µM in experiment [1], less than 0.01 µM in experiment [2], 0.1 to 1 µM on Recombinant EGFR and 0.01 to 0.1 µM in experiment [3].

For `COc1ccccc1C(=O)NCc1ccc(-c2nn(-c3ccc(CO)cc3)c(N)c2C(N)=O)cc1` [Example 49, 5-amino-1-[4-(hydroxymethyl)phenyl]-3-[4-[[(2-methoxybenzoyl)amino]methyl]phenyl]pyrazole-4-carboxamide], the IC50 in experiment [1] was less than 0.01 µM; in experiment [2], less than 0.01 µM; on Recombinant EGFR, 0.1 to 1 µM; in experiment [3], 0.01 to 0.1 µM.

For the compound `COc1ccc(F)cc1C(=O)NCc1ccc(-c2nn(CCC(F)(F)F)c(N)c2C(N)=O)cc1` [Example 174, 5-amino-3-[4-[[(5-fluoro-2-methoxy-benzoyl)amino]methyl]phenyl]-1-(3,3,3-trifluoropropyl)pyrazole-4-carboxamide], the IC50 was less than 0.01 µM in experiment [1], less than 0.01 µM in experiment [2], 1 to 10 µM on Recombinant EGFR and 0.01 to 0.1 µM in experiment [3].

For the compound `COc1ccccc1C(=O)NCc1ccc(-c2nn(C3CCCOC3)c(N)c2C(N)=O)cc1` (stereo not drawn) [Example 80, 5-amino-3-[4-[[(2-methoxybenzoyl)amino]methyl]phenyl]-1-tetrahydropyran-3-yl-pyrazole-4-carboxamide], the IC50 is less than 0.01 µM in experiment [1], less than 0.01 µM in experiment [2], 0.1 to 1 µM at Recombinant EGFR and 0.01 to 0.1 µM in experiment [3].

`COc1ccccc1C(=O)NCc1ccc(-c2nn(-c3ccc(F)cc3F)c(N)c2C(N)=O)cc1` [Example 15, 5-Amino-1-(2,4-difluorophenyl)-3-[4-[[(2-methoxybenzoyl)amino]methyl]phenyl]pyrazole-4-carboxamide]: the IC50 in experiment [1] was less than 0.01 µM; in experiment [2] it was less than 0.01 µM; on Recombinant EGFR, 1 to 10 µM; in experiment [3], 0.01 to 0.1 µM.

Regarding `COc1ccccc1C(=O)NCc1ccc(-c2nn(C3CN(C)CC3(F)F)c(N)c2C(N)=O)cc1` (stereo not drawn) [Example 167, 5-amino-1-(4,4-difluoro-1-methyl-pyrrolidin-3-yl)-3-[4-[[(2-methoxybenzoyl)amino]methyl]phenyl]pyrazole-4-carboxamide], the IC50 in experiment [1] was less than 0.01 µM; in experiment [2] it was less than 0.01 µM; at Recombinant EGFR it was 1 to 10 µM; in experiment [3] it was 0.01 to 0.1 µM.

With `COc1ccc(F)cc1C(=O)NCc1ccc(-c2nn(C(C3CCCCC3)C(F)(F)F)c(N)c2C(N)=O)cc1` (stereo not drawn) [Example 192, 5-amino-1-(1-cyclohexyl-2,2,2-trifluoro-ethyl)-3-[4-[[(5-fluoro-2-methoxy-benzoyl)amino]methyl]phenyl]pyrazole-4-carboxamide], the IC50 was 0.01 to 0.1 µM in experiment [1], 0.01 to 0.1 µM in experiment [2], 1 to 10 µM on Recombinant EGFR and 0.1 to 1 µM in experiment [3].

With `COc1ccccc1C(=O)NCc1ccc(-c2nn(-c3cccc(F)c3)c(N)c2C(N)=O)cc1` [Example 32, 5-amino-1-(3-fluorophenyl)-3-[4-[[(2-methoxybenzoyl)amino]methyl]phenyl]pyrazole-4-carboxamide], the IC50 is less than 0.01 µM in experiment [1], less than 0.01 µM in experiment [2], 0.1 to 1 µM at Recombinant EGFR and 0.01 to 0.1 µM in experiment [3].

Regarding `COc1ccccc1C(=O)NCC(O)c1ccc(-c2nn(C3CCCC3)c(N)c2C(N)=O)cc1C` (stereo not drawn) [Example 187, 5-amino-1-cyclopentyl-3-[4-[1-hydroxy-2-[(2-methoxybenzoyl)amino]ethyl]-3-methyl-phenyl]pyrazole-4-carboxamide], the IC50 was 0.1 to 1 µM in experiment [1], 0.1 to 1 µM in experiment [2], 1 to 10 µM at Recombinant EGFR and 0.1 to 1 µM in experiment [3].

`COc1ccc(F)cc1C(=O)NCc1ccc(-c2nn(C(C3CCOC3)C(F)(F)F)c(N)c2C(N)=O)cc1` (mixture of isomers) [Example 175, 5-amino-3-[4-[[(5-fluoro-2-methoxy-benzoyl)amino]methyl]phenyl]-1-(2,2,2-trifluoro-1-tetrahydrofuran-3-yl-ethyl)pyrazole-4-carboxamide]: the IC50 lay within 0.01 to 0.1 µM in experiment [1], 0.01 to 0.1 µM in experiment [2], 1 to 10 µM at Recombinant EGFR and 0.1 to 1 µM in experiment [3].

Regarding `COc1ccccc1C(=O)NCc1ccc(-c2nn([C@H]3CCOC3)c(N)c2C(N)=O)cc1` [Example 83a, 5-amino-3-[4-[[(2-methoxybenzoyl)amino]methyl]phenyl]-1-[(3S)-tetrahydrofuran-3-yl]pyrazole-4-carboxamide], the IC50 in experiment [1] was less than 0.01 µM; in experiment [2] it was less than 0.01 µM; at Recombinant EGFR it was 1 to 10 µM; in experiment [3], 0.1 to 1 µM.

On to `COc1ccc(F)cc1C(=O)NCc1ccc(-c2nn(C(C)C(F)F)c(N)c2C(N)=O)cc1` (stereo not drawn) [Example 173, 5-amino-1-(2,2-difluoro-1-methyl-ethyl)-3-[4-[[(5-fluoro-2-methoxy-benzoyl)amino]methyl]phenyl]pyrazole-4-carboxamide], for which the IC50 in experiment [1] is less than 0.01 µM; in experiment [2], less than 0.01 µM; on Recombinant EGFR, 1 to 10 µM; in experiment [3] it was 0.01 to 0.1 µM.

`CNc1c(C(N)=O)c(-c2ccc(CNC(=O)c3ccccc3OC)cc2)nn1C1CCOCC1` [Example 91, 3-[4-[[(2-methoxybenzoyl)amino]methyl]phenyl]-5-(methylamino)-1-tetrahydropyran-4-yl-pyrazole-4-carboxamide]: the IC50 in experiment [1] was 0.01 to 0.1 µM; in experiment [2], less than 0.01 µM; at Recombinant EGFR, 1 to 10 µM; in experiment [3] it was 0.1 to 1 µM.

Regarding `COc1ccccc1C(=O)NCc1ccc(-c2nn(C3CCC(O)(C(F)(F)F)CC3)c(N)c2C(N)=O)cc1` (stereo not drawn) [Example 65, 5-amino-1-[4-hydroxy-4-(trifluoromethyl)cyclohexyl]-3-[4-[[(2-methoxybenzoyl)amino]methyl]phenyl]pyrazole-4-carboxamide], the IC50 is less than 0.01 µM in experiment [1], less than 0.01 µM in experiment [2], 0.1 to 1 µM at Recombinant EGFR and 0.01 to 0.1 µM in experiment [3].
